melting point	SMILES
9.5 °C	Cc1nc2ccccc2o1
173 to 175 °C	O=C(Cl)c1cc2c(Cl)cc(Cl)cc2[nH]1
-32 °C	CCCCCCCCCCCC(C)CC (stereo unspecified)
85 °C	O=C(O)C(=S)Cc1cccc(CC(=S)C(=O)O)c1
79 °C	O=C(O)C1(C2=CCCCC2)CCCCC1
-11 °C	CCCCCCCCNC
30 to 34 °C	CC(C)(C)[C@H](N)CO
214 °C	O=[N+]([O-])c1ccccc1/C=C/c1ccccn1
31.4 °C	CCCCCCCCCCCCCCCCC(CCC)c1ccccc1 (stereo unspecified)
146 °C	NC(=O)c1ccc(F)c(Cl)c1
91 °C	COc1cc(N=C=S)c(C(c2ccc(C)o2)c2ccc(C)o2)cc1OC
141 °C	O=C(O)Cc1ccccc1[N+](=O)[O-]
18 °C	Cc1c(C)n(C)c2ccccc12
310 °C	O=c1[nH][nH]c(=O)c2cc3c(cc12)CCC3
51 °C	COC(=O)c1ccc(C)c([N+](=O)[O-])c1
51 °C	Cc1ccc(F)c(C#N)c1
75 °C	CNC(=S)NCc1ccccc1
72 °C	N#Cc1ccc(N)c(OC(F)(F)F)c1
192 °C	CC(=O)OC1CC2(C)C(CC(O)C3C4(C)CCC(O)C(C)C4CCC32C)C1=C(CCC=C(C)C)C(=O)O (stereo unspecified)
190 °C	Oc1ccc(C2COc3cc(O)ccc3C2)cc1 (stereo unspecified)
49 °C	[N-]=[N+]=Nc1ccccc1-c1ccccc1
30 °C	O=C1CCc2ccccc2CC1

melting point	SMILES
35 °C	S=C1SCCS1
174 °C	NNC(=O)c1ccc2c(c1)OCO2
136 °C	NC(=O)c1ccc(F)cc1C(F)(F)F
240 °C	Cn1c(=O)c(C2=NNC(=O)C2=NNc2ccc(Cl)cc2)c(O)c2ccccc21
162 °C	O=C(OCC(COC(=O)c1cccnc1)(COC(=O)c1cccnc1)COC(=O)c1cccnc1)c1cccnc1
161 to 163 °C	O=C(O)c1cc(I)ccc1Cl
188 °C	CC12CCC(C1(C)C)C(C/C=C\c1ccccc1)(C1(C/C=C/c3ccccc3)C(=O)C3(C)CCC1C3(C)C)C2=O (stereo unspecified)
204 °C	CC(=O)c1c(O)c(C)c(O)c2c1OC1=CC(=O)C(C(C)=O)C(=O)C12C (stereo unspecified)
80 °C	COc1cc(N)ccc1Cl
82 to 84 °C	CSC(SC)=C(C#N)C#N
107 to 109 °C	Cc1onc(-c2c(Cl)cccc2Cl)c1CO
38 °C	CCN1C(=O)CSC1=S
147 °C	O=C(Oc1ccccc1C(=O)O)c1ccccc1O
193 to 197 °C	NC(=S)Nc1cccc2ccccc12
180 °C	O=C(C1=NOC2C(=O)N(c3ccccc3Cl)C(=O)C12)c1cccs1 (stereo unspecified)
38 °C	CN(C)c1ccc(N=C=O)cc1
96 °C	CC(C(=O)O)c1ccc(C(=O)c2ccccc2)s1 (stereo unspecified)
29 to 30 °C	Fc1ccc(Cc2ccc(F)cc2)cc1
104 °C	CC(CCC(C(=O)O)C(C)C)C(=O)O (stereo unspecified)
166 °C	CN(C)CCN1C(=O)c2ccccc2Nc2cc(Cl)ccc21
173 to 177 °C	CCC12CCCN3CCc4c(n(c5ccccc45)C(=O)C1)C32 (single isomer, unassigned; (-))
-50 °C	CCOC(=O)CC(=O)OCC

SMILES	melting point
NCCc1ccc(-c2ccccc2)cc1	53 to 55 °C
COc1cc2c(cc1OCc1ccccc1)C(C)NCC2 (stereo unspecified)	91 °C
CC12CCC(=O)CC1CCC1C2CCC2(C)C1CCC2(C)O (stereo unspecified)	192 °C
Cc1ccc(N)c([N+](=O)[O-])c1	116 °C
COc1cc2c(c3oc(=O)c4c(c13)CCC4=O)C1CCOC1O2 (stereo unspecified)	288 °C
CC1(C)C(C=C(Cl)Cl)C1C(=O)OCc1c(F)c(F)cc(F)c1F (stereo unspecified)	32 °C
N#CCCNc1ccccc1	52.5 °C

Source: a melting point compilation (Tetko et al.)
